PubChem BioAssay AID330 (DTP/NCI, 2004)
“And” between values parts separate entries of the source, which are not always exact repeats. Identical values can stand only once. Toxic doses and inconclusive results are not listed. How the source made its calls: active means survival T/C of 150% or more; inactive means T/C below 125% in these data.

System: P388 leukemia ip, CD2F1 mice, survival T/C
Test: NCI In Vivo Anticancer Drug Screen. Data for tumor model P388 Leukemia (intraperitoneal) in CD2F1 (CDF1) mice
Conditions: endpoint: median survival time, higher = longer survival
In short: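 Mice carrying the transplanted tumor received test compound or vehicle. Survival was recorded in each group, and the value is the treated-group measurement divided by that of the vehicle-treated control group.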

[1] = dose: 50.0 mg/kg/injection, schedule: Q01DX009 (ip), vehicle: saline with Tween-80
[2] = dose: 100.0 mg/kg/injection, schedule: Q01DX009 (ip), vehicle: saline with Tween-80
[3] = dose: 200.0 mg/kg/injection, schedule: Q01DX009 (ip), vehicle: saline with Tween-80
[4] = dose: 50.0 mg/kg/injection, schedule: Q01DX009 (ip), vehicle: Klucel (hydroxypropylcellulose) (HPC)
[5] = dose: 50.0 mg/kg/injection, schedule: Q01DX005 (ip), vehicle: saline with Tween-80
[6] = dose: 200.0 mg/kg/injection, schedule: Q01DX005 (ip), vehicle: saline with Tween-80
[7] = dose: 100.0 mg/kg/injection, schedule: Q01DX005 (ip), vehicle: saline with Tween-80
[8] = dose: 50.0 mg/kg/injection, schedule: Q01DX009 (ip), vehicle: saline
[9] = dose: 100.0 mg/kg/injection, schedule: Q01DX009 (ip), vehicle: saline

Measured: T/C

COc1c2c(c(O)c3c1C(=O)c1cccc(O)c1C3=O)C(OC1CC(N)C(O)C(C)O1)CC(O)(C(C)=O)C2 (stereo unspecified)
inactive: dose: 12.5 mg/kg/injection, schedule: Q04DX003 (ip), vehicle: water 118 % of control | dose: 25.0 mg/kg/injection, schedule: Q04DX003 (ip), vehicle: water 118 % of control | dose: 50.0 mg/kg/injection, schedule: Q04DX003 (ip), vehicle: water 100 % of control

CCCCC(SC(CC)(C(N)=O)c1ccccc1)C(=O)O (stereo unspecified)
inactive: [1] 108 % of control | [2] 105 % of control | [3] 106 % of control | dose: 400.0 mg/kg/injection, schedule: Q01DX009 (ip), vehicle: saline with Tween-80 97 % of control

CCc1cc(COC(C)=O)on1
inactive: [4] 105 % of control | dose: 100.0 mg/kg/injection, schedule: Q01DX009 (ip), vehicle: Klucel (hydroxypropylcellulose) (HPC) 109 % of control | dose: 200.0 mg/kg/injection, schedule: Q01DX009 (ip), vehicle: Klucel (hydroxypropylcellulose) (HPC) 109 % of control

C/C=C1/C(=O)O[C@]23C=C[C@@H]4C(C(=O)OC)=CO[C@H](O[C@@H]12)[C@@H]43
inactive: dose: 1.25 mg/kg/injection, schedule: Q01DX009 (ip), vehicle: Klucel (hydroxypropylcellulose) (HPC) 96 % of control | dose: 2.5 mg/kg/injection, schedule: Q01DX009 (ip), vehicle: Klucel (hydroxypropylcellulose) (HPC) 98 % of control | dose: 5.0 mg/kg/injection, schedule: Q01DX009 (ip), vehicle: Klucel (hydroxypropylcellulose) (HPC) 102 % of control | dose: 10.0 mg/kg/injection, schedule: Q01DX009 (ip), vehicle: Klucel (hydroxypropylcellulose) (HPC) 109 % of control

COC(=O)[C@H](NC(=O)c1ccccc1)[C@@H](O)/C=C/c1ccccc1
inactive: [5] 94 % of control | [6] 87 % of control

COc1cccc2c1C(=O)c1c(O)c3c(c(O)c1C2=O)CC(O)(C(C)=O)CC3OC1CC(OC(=O)c2ccc([N+](=O)[O-])cc2)C(OC(=O)c2ccc([N+](=O)[O-])cc2)C(COC(=O)c2ccc([N+](=O)[O-])cc2)O1 (stereo unspecified)
inactive: dose: 3.13 mg/kg/injection, schedule: Q04DX003 (ip), vehicle: distilled water + Tween-80 100 % of control and 101 % of control | dose: 6.25 mg/kg/injection, schedule: Q04DX003 (ip), vehicle: distilled water + Tween-80 100 % of control and 99 % of control | dose: 12.5 mg/kg/injection, schedule: Q04DX003 (ip), vehicle: distilled water + Tween-80 104 % of control | dose: 25.0 mg/kg/injection, schedule: Q04DX003 (ip), vehicle: distilled water + Tween-80 102 % of control and 100 % of control | dose: 50.0 mg/kg/injection, schedule: Q04DX003 (ip), vehicle: distilled water + Tween-80 95 % of control

CN(C)c1ncnc2c1ncn2CC(O)CN (stereo unspecified)
inactive: dose: 50.0 mg/kg/injection, schedule: Q01DX005 (ip), vehicle: distilled water + alcohol 100 % of control | dose: 100.0 mg/kg/injection, schedule: Q01DX005 (ip), vehicle: distilled water + alcohol 103 % of control | dose: 200.0 mg/kg/injection, schedule: Q01DX005 (ip), vehicle: distilled water + alcohol 96 % of control

CC(=O)N(Cc1ccccc1)c1nccs1
inactive: [5] 104 % of control | [7] 99 % of control | [6] 90 % of control

CC1(C)C2CCC(O2)C(C)(C)C2CCC(O2)C(C)(C)C2CCC(O2)C(C)(C)C2CCC1O2
inactive: [5] 102 % of control | [7] 100 % of control | [6] 95 % of control

O=S(=O)(OCCCl)c1ccc(F)cc1
inactive: [1] 109 % of control | [2] 101 % of control | [3] 100 % of control

CC1(C)N=C(N)N=C(N)N1c1ccc(OCC(=O)N2CCOCC2)c(Cl)c1
inactive: dose: 25.0 mg/kg/injection, schedule: Q01DX009 (ip), vehicle: saline 109 % of control | [8] 116 % of control | [9] 107 % of control | dose: 100.0 mg/kg/injection, schedule: Q04DX003 (ip), vehicle: saline sonified 113 % of control

CC[n+]1cccc2ccccc21
inactive: dose: 100.0 mg/kg/injection, schedule: Q04DX003 (ip), vehicle: saline with Tween-80 101 % of control | dose: 200.0 mg/kg/injection, schedule: Q04DX003 (ip), vehicle: saline with Tween-80 94 % of control

COc1ccc(C2CC(=O)C(C)C(c3ccc(OC)cc3)N2)cc1 (stereo unspecified)
inactive: [8] 100 % of control | [9] 104 % of control | dose: 200.0 mg/kg/injection, schedule: Q01DX009 (ip), vehicle: saline 100 % of control

NC(=S)N/N=C1/C(=O)N(C2CCCCCC2)C(=O)C1C(=O)NC1CCCCCC1 (stereo unspecified)
inactive: dose: 12.5 mg/kg/injection, schedule: Q01DX005 (ip), vehicle: saline with Tween-80 105 % of control | dose: 25.0 mg/kg/injection, schedule: Q01DX005 (ip), vehicle: saline with Tween-80 99 % of control | [5] 104 % of control and 90 % of control

COc1cc(OC)c2cc(C(=O)c3ccc(C#N)cc3)c(=O)oc2c1
inactive: dose: 60.0 mg/kg/injection, schedule: Q01DX005 (ip), vehicle: saline with Tween-80 94 % of control | dose: 120.0 mg/kg/injection, schedule: Q01DX005 (ip), vehicle: saline with Tween-80 104 % of control | dose: 240.0 mg/kg/injection, schedule: Q01DX005 (ip), vehicle: saline with Tween-80 105 % of control

O=C(NCCCl)NCCCl
inactive: dose: 10.0 mg/kg/injection, schedule: Q01DX009 (ip), vehicle: saline 105 % of control and 108 % of control | dose: 20.0 mg/kg/injection, schedule: Q01DX009 (ip), vehicle: saline 101 % of control and 102 % of control | dose: 40.0 mg/kg/injection, schedule: Q01DX009 (ip), vehicle: saline 104 % of control and 108 % of control | dose: 80.0 mg/kg/injection, schedule: Q01DX009 (ip), vehicle: saline 102 % of control and 109 % of control | dose: 160.0 mg/kg/injection, schedule: Q01DX009 (ip), vehicle: saline 101 % of control and 104 % of control | dose: 320.0 mg/kg/injection, schedule: Q01DX009 (ip), vehicle: saline 102 % of control and 106 % of control

Nc1ccc(-c2c[nH]c(=O)c([N+](=O)[O-])c2)cc1
inactive: [1] 99 % of control | [2] 99 % of control | [3] 100 % of control

N=C(N)SCc1ccc([N+](=O)[O-])cc1
inactive: dose: 25.0 mg/kg/injection, schedule: Q01DX009 (ip), vehicle: Klucel (hydroxypropylcellulose) (HPC) 102 % of control | [4] 107 % of control

Cc1ncoc1C(=O)Nc1ccc([N+](=O)[O-])cc1[N+](=O)[O-]
inactive: dose: 100.0 mg/kg/injection, schedule: Q04DX002 (ip), vehicle: Klucel (hydroxypropylcellulose) (HPC) 103 % of control | dose: 200.0 mg/kg/injection, schedule: Q04DX002 (ip), vehicle: Klucel (hydroxypropylcellulose) (HPC) 100 % of control | dose: 400.0 mg/kg/injection, schedule: Q04DX002 (ip), vehicle: Klucel (hydroxypropylcellulose) (HPC) 105 % of control

c1nc(N2CCCCC2)c2c3c(sc2n1)CCCC3
inactive: [5] 100 % of control | [7] 91 % of control | [6] 96 % of control

Cc1ccccc1OC(=O)Nc1ccc(C(=O)O)c(O)c1
inactive: dose: 100.0 mg/kg/injection, schedule: Q01DX001 (ip), vehicle: saline with Tween-80 95 % of control | dose: 200.0 mg/kg/injection, schedule: Q01DX001 (ip), vehicle: saline with Tween-80 109 % of control

COc1ccn(C2OC(COC(=O)c3ccccc3)C(OC(=O)c3ccccc3)C2OC(=O)c2ccccc2)c(=O)n1 (stereo unspecified)
inactive: dose: 25.0 mg/kg/injection, schedule: Q01DX005 (ip), vehicle: Klucel (hydroxypropylcellulose) (HPC) 97 % of control | dose: 50.0 mg/kg/injection, schedule: Q01DX005 (ip), vehicle: Klucel (hydroxypropylcellulose) (HPC) 88 % of control and 93 % of control | dose: 100.0 mg/kg/injection, schedule: Q01DX005 (ip), vehicle: Klucel (hydroxypropylcellulose) (HPC) 90 % of control | dose: 200.0 mg/kg/injection, schedule: Q01DX005 (ip), vehicle: Klucel (hydroxypropylcellulose) (HPC) 92 % of control
